# Experimental data taken from publication PMC6270423, “Phytochemical, Antimicrobial and Antiprotozoal Evaluation of Garcinia Mangostana Pericarp and α-Mangostin, Its Major Xanthone Derivative” (Molecules, 2013).
# pIC50: −log10 of the molar value. Like-named read-outs stand apart in the source and are kept apart here.
# Tests used:
# [1] = system: Chloroquine-resistant P. falciparum K 1-strain; test: Antiplasmodial activity, Malstat (pLDH) assay; format: cell-based; details: Plasmodium falciparum; K1 strain, 72 h
# Protocol: (§1) The integrated panel of microbial screens and standard screening methodologies were adopted as previously described. All assays were performed in triplicate at the Laboratory of Microbiology, Parasitology and Hygiene at the University of Antwerp (Antwerp, Belgium). Extracts were tested at five concentrations (64, 16, 4, 1 and 0.25 μg/mL) to establish a full dose-titration and determination of the IC50 (inhibitory concentration 50%). […] The selectivity of activity was assessed by simultaneous cytotoxicity evaluation on the MRC-5 fibroblast cell line.
# Chloroquine-resistant P. falciparum K 1-strain was cultured in human erythrocytes O^+ at 37 °C under a low oxygen atmosphere (3% O2, 4% CO2, and 93% N2) in RPMI-1640, supplemented with 10% human serum. Infected human red blood cells (200 μL, 1% parasitaemia, 2% haematocrit) were added to each well and incubated for 72 h. After incubation, test plates were frozen at −20 °C. Parasite multiplication was measured using the Malstat assay, a colorimetric method based on the reduction of 3-acetyl pyridine adenine dinucleotide (APAD) by parasite-specific lactate-dehydrogenase (pLDH).
# [2] = system: L. infantum MHOM/MA (BE)/67 amastigotes; test: Antileishmanial activity, intracellular amastigotes in primary peritoneal mouse macrophages; format: cell-based, Leishmania infantum; details: 5 days
# Protocol: The integrated panel of microbial screens and standard screening methodologies were adopted as previously described. All assays were performed in triplicate at the Laboratory of Microbiology, Parasitology and Hygiene at the University of Antwerp (Antwerp, Belgium). […] The selectivity of activity was assessed by simultaneous cytotoxicity evaluation on the MRC-5 fibroblast cell line. […] L. infantum MHOM/MA (BE)/67 amastigotes were collected from the spleen of an infected donor hamster and used to infect primary peritoneal mouse macrophages. To determine in vitro antileishmanial activity, 3 × 10^4 macrophages were seeded in each well of a 96-well plate. After 2 days outgrowth, 5 × 10^5 amastigotes/well, were added and incubated for 2 h at 37 °C. Pre-diluted plant extracts were subsequently added and the plates were further incubated for 5 days at 37 °C and 5% CO2. Parasite burdens (mean number of amastigotes/macrophage) were microscopically assessed on 500 cells after Giemsa staining of the […] expressed as a percentage of the blank controls without plant extract.
# T. cruzi Tulahuen CL2 = test: Antitrypanosomal activity, T. cruzi on MRC-5 cells, LacZ reporter; format: cell-based, Trypanosoma cruzi; details: 7 days
# Protocol: as §1
# (§2) Trypanosoma brucei Squib-427 strain (suramin-sensitive) was cultured at 37 °C and 5% CO2 in Hirumi-9 medium, supplemented with 10% fetal calf serum (FCS). About 1.5 × 10^4 trypomastigotes/well were added to each well and parasite growth was assessed after 72 h at 37 °C by adding resazurin [29]. For Chagas disease, T. cruzi Tulahuen CL2 (benznidazole-sensitive, LacZ-reporter strain) was maintained on MRC-5 cells in minimal essential medium (MEM) supplemented with 20 mM L-glutamine, 16.5 mM sodium hydrogen carbonate and 5% FCS. […] After incubation at 37 °C for 7 days, parasite growth was assessed by adding the substrate chlorophenol red α-D-galactopyranoside. The color reaction was read at 540 nm after 4 h and absorbance values were expressed as a percentage of the blank controls.
# [3] = system: Trypanosoma brucei Squib-427 strain; test: Antitrypanosomal activity, T. brucei trypomastigotes, resazurin; format: cell-based; details: 72 h
# Protocol: as §1, §2
# [4] = Cytotoxicity assay, resazurin; format: cell-based; details: human, MRC-5 SV2 fibroblast cells
# Protocol: The integrated panel of microbial screens and standard screening methodologies were adopted as previously described. All assays were performed in triplicate at the Laboratory of Microbiology, Parasitology and Hygiene at the University of Antwerp (Antwerp, Belgium). […] The selectivity of activity was assessed by simultaneous cytotoxicity evaluation on the MRC-5 fibroblast cell line. […] MRC-5 SV2 cells were cultivated in MEM, supplemented with L-glutamine (20 mM), 16.5 mM sodium hydrogen carbonate and 5% FCS. […] Cell viability was assessed fluorimetrically after 4 h of addition of resazurin. Fluorescence was measured (excitation 550 nm, emission 590 nm) and the results were expressed as % reduction in cell viability compared to control.
# B. subtilis = test: Antimicrobial activity; format: cell-based, Bacillius subtilis; details: Bacillus subtilis
# Protocol: (§3) Samples were tested for antimicrobial activity according to the Clinical Laboratory Standard Institution using American type of Culture Collection (ATCC) standard.
# C. albicans = test: Antimicrobial activity; format: cell-based; details: Candida albicans
# Protocol: as §3
# E. coli = test: Antimicrobial activity; format: cell-based; details: Escherichia coli
# Protocol: as §3
# Mycobacterium smegmatis = test: Antimicrobial activity; format: cell-based; details: Mycolicibacterium smegmatis
# Protocol: as §3
# P. aeruginosa = test: Antimicrobial activity; format: cell-based; details: Pseudomonas aeruginosa
# Protocol: as §3
# S. aureus = test: Antimicrobial activity; format: cell-based; details: Staphylococcus aureus
# Protocol: as §3
# Mycobacterium cheleneoi = test: Antimicrobial activity; format: cell-based, M. cheleneoi
# Protocol: as §3
# Mycobacterium xenopi = test: Antimicrobial activity; format: cell-based, M. xenopi
# Protocol: as §3
# [5] = system: Mycobacterium intracellulare; test: Antimicrobial activity; format: cell-based, M. intracellulare
# Protocol: as §3
compound,measurement,setting,value
COc1c(O)cc2oc3cc(O)c(CC=C(C)C)c(O)c3c(=O)c2c1CC=C(C)C [α-Mangostin],pIC50,[1],5.66
same,pIC50,[2],5.10
same,pIC50,"[2]; Leishmania infantum, Macrophage, 120 h",5.05 to 5.10
same,pIC50,T. cruzi Tulahuen CL2,5.05
same,pIC50,"T. cruzi Tulahuen CL2; Trypanosoma cruzi, TULAHUEN, MRC5, 168 h",5.05 to 5.10
same,pIC50,[3],5.10
same,pIC50,[3]; Trypanosoma brucei,5.05 to 5.10
same,IC50 at 72 h,[4],7.5 µM
same,MIC,B. subtilis,3.9 µM
same,MIC,B. subtilis; text,1.6 µg/mL
same,MIC,C. albicans,> 200 µM
same,IC50,C. albicans; no activity at all,> 200 µg/mL
same,MIC,E. coli,> 200 µM
same,IC50,E. coli; no activity at all,> 200 µg/mL
same,MIC,Mycobacterium smegmatis; read-out: MIC Mycobacterium smegmatis,3.7 µM
same,MIC,Mycobacterium smegmatis; read-out: MIC Mycobacterium species (M. smegmatis),1.5 µg/mL
same,MIC,P. aeruginosa,> 200 µM
same,IC50,P. aeruginosa; no activity at all,> 200 µg/mL
same,MIC,S. aureus,7.8 µM
same,MIC,S. aureus; text,3.2 µg/mL
same,MIC,Mycobacterium cheleneoi; read-out: MIC Mycobacterium cheleneoi,3.7 µM
same,MIC,Mycobacterium cheleneoi; read-out: MIC Mycobacterium species (M. cheleneoi),1.5 µg/mL
same,MIC,Mycobacterium xenopi; read-out: MIC Mycobacterium species (M. xenopi),1.5 µg/mL
same,MIC,Mycobacterium xenopi; read-out: MIC Mycobacterium xenopi,3.7 µM
same,MIC,[5]; read-out: MIC Mycobacterium intracellulare,3.7 µM
same,MIC,[5]; read-out: MIC Mycobacterium species (M. intracellulare),1.5 µg/mL
COc1cc2oc3cc(OC)c(OC)c(CC=C(C)C)c3c(=O)c2c(O)c1CC=C(C)C,melting point,,152 to 154 °C
